In article PMC11891579, “Fluorescent PyrAte-(S)-citalopram conjugates enable imaging of the serotonin transporter in living tissue” (Chemical Science, 2025):
Entries after “also recorded” stand apart in the source; their conditions may differ.

Legend:
[1] = biological target: T1, mCherry-SERT-expressing HEK293 cells (Homo sapiens, UniProt P31645); assay: confocal microscopy of membrane staining; type: cell-based; conditions: for membrane staining of mCherry-SERT HEK293 cells: 20 nM
T1 construct: expressed in transfected cells
T1 sequence (P31645 whole entry): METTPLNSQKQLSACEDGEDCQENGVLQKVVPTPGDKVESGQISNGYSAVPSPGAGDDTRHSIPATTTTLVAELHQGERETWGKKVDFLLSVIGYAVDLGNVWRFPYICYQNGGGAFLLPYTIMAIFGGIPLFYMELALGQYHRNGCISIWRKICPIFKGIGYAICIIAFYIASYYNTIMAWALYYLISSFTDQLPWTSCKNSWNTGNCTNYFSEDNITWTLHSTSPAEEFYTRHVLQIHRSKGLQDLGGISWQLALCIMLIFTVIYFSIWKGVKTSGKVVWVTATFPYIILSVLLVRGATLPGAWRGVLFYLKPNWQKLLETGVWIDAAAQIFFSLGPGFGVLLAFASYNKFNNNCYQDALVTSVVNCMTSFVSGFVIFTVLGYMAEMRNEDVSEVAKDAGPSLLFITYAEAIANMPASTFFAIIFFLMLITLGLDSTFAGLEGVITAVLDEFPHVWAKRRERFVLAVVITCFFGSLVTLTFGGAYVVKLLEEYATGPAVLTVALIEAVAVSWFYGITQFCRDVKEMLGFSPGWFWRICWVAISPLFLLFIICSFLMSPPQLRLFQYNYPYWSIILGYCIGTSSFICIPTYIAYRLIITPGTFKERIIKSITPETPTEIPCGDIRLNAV
Experimental: Prior to imaging, cell culture medium was replaced with pre-warmed KHB. HEK293 cells expressing mCherry-SERT were imaged using a Nikon A1R laser scanning confocal microscope equipped with a GaAsP detector, using a 60× oil-immersion objective. PyrAtes dissolved in DMSO were diluted in KHB (0.1% v/v) to make solutions with the desired final concentration (20 nM, 100 nM), which were added to each well containing the cells. To test specific binding, cells were pre-incubated with 10 – 30 µM paroxetine for 10 minutes. PyrAtes were excited using a 405 nm laser, and its fluorescent signals collected using 525/50 nm emission filters; mCherry was excited using a 561 nm laser, and fluorescence was collected using 595/50 nm emission filters. Images were captured prior to and at specific time points after addition of the PyrAte compounds using NIS-Elements software. […]
Cells were voltage-clamped (−60 mV) and continuously superfused with a physiological external solution containing 140mM NaCl, 2.5 mM CaCl2,2mM MgCl2, 20mM glucose and 10mM HEPES, pH= 7.4. Micropipettes were made from borosilicate glass capillaries with a resistance ranging from 2.5 – 6 MΩ using a P-97 micropipette puller (Sutter Instrument), which were then filled with an internal solution containing 133mM K-gluconate, 6mM NaCl, 1mM CaCl2, 0.7 mM MgCl2, 10mM HEPES, 10mM EGTA, pH= 7.2. For the measurements we used an amplifier […] and pClamp 11.2 software (MDS Analytical Technologies, Sunnyvale, CA, USA). The compounds were diluted the day of the experiments in external solutions and applied using a DAD-12 superfusion system with a 8-tube perfusion manifold (ALA Scientific Instruments, Farmingdale, NY, USA), guaranteeing rapid solution exchange. Current traces were filtered at 1 kHz and digitized at 10 kHz using a Digidata 1550 (MDS Analytical Technologies). […]

SERT = biological target: T2, SERT (Homo sapiens, UniProt P31645); assay: radioligand binding assay, [3H]-imipramine competition in SERT-containing membrane fractions; conditions: 3 nM [3H]-imipramine; membranes of HEK293 YhSERT; mean ± SD of three experiments; Cheng-Prusoff; read-out: Ki, competitive binding with imipramine
T2 construct: expressed in transfected cells
T2 sequence (P31645 whole entry): as above
Experimental: ten minutes (for [3H]MPP+), by exchange of the substrate-containing buffer with 0.2 mL ice-cold KHB.
The KHB was aspirated immediately. Cells were lysed and prepared for [3H] content analysis by adding 0.2 mL Ultima Gold™ XR liquid scintillation cocktail. […]
microplate liquid scintillation counter. Non-specific uptake was determined in the presence of 30 µM paroxetine (for YhSERT), 50 µM GBR12909 (for YhDAT and hNET), or 100 µM decynium-22 (for YhOCT3).
For radioligand binding assays, membranes were first prepared from HEK293 cells stably expressing YhSERT. Cells were harvested from dishes using a plastic scraper and ice-cold PBS. Cells were recovered as a pellet after centrifugation (400× g) for 10 min at 4°C, and then re-suspended in HME buffer. The cell suspension was frozen rapidly by immersing in liquid N2, and then immediately thawed and sonicated for three 12 pulses/min cycles. Membrane fractions were collected after centrifugation at 40000× g for 15 minutes, and then re-suspended in HME buffer. Protein concentration was determined using Coomassie Brilliant Blue kit (BioRad Laboratories, California, USA). The binding reactions were carried out in a final volume of 0.25 mL B2 buffer containing 15 µg membranes, 3 nM

Structure (SMILES) | membrane staining of mCherry-SERT HEK293 cells ([1]; 60 min incubation, absent with paroxetine) | membrane staining of mCherry-SERT HEK293 cells ([1]; 30 min incubation, blocked by 30 μM paroxetine) | staining of mCherry-SERT HEK293 cells ([1]; 100 nM) | Ki (SERT)
CCN(CC)c1ccc(-c2cc[n+]3c(-c4ccccc4)c(N4CCCC4)n(CCCC(=O)NCc4ccc5c(c4)CO[C@@]5(CCCN(C)C)c4ccc(F)cc4)c3c2)cc1 [PYR-C3-CIT, PyrAte-C3-(S)-citalopram] | enhanced co-localization of PyrAte and mCherrySERT signals and no internalization; also recorded: SERT-specific membrane staining | – | – | –
CCN(CC)c1ccc(-c2cc[n+]3c(-c4ccccc4)c(N4CCCC4)n(CCCCCCC(=O)NCc4ccc5c(c4)CO[C@@]5(CCCN(C)C)c4ccc(F)cc4)c3c2)cc1 [PYR-C6-CIT, PyrAte-C6-(S)-citalopram] | – | binds specifically to membrane-expressed SERT; also recorded: SERT-specific membrane staining | mitochondrial staining | 110 ± 70 nM
